Assay results published in patent publication EP1566447A1, “Glimepiride- and insulin-induced glycosylphosphatidylinositol-specific phospholipase C regulation” (priority 2004, dated 2005).
“Also recorded” adds a separate entry of the source.

Key:
IRS-1 and pp59^Lyn = assay: tyrosine phosphorylation of pp59^Lyn and IRS-1; format: cell-based, rat
Experimental: Polypeptides separated by SDS-PAGE were transferred to polyvinylidene difluoride membranes using the semidry procedure as described in "Müller, G. et al., (2001) Mol. Cell. Biol. 21: 4553-4567". Washed membranes were incubated anti-caveolin-1 (1:2000), anti-pp59^Lyn (1:1250), anti-aP (1:500), anti-5'-Nuc (1:750) and anti-IRS-1 (1:2000) antibodies for 4 h at 15°C. Washed membranes were incubated with horseradish peroxidase-coupled secondary goat anti-mouse (1:2000) or goat anti-rabbit IgG (1:4000) antibodies. Labeled proteins were visualized by enhanced chemiluminescence.
Fig. 7: Effect of GPI-2350 on the glimepiride/insulin-induced activation of signaling proteins. Isolated rat adipocytes were treated (5 min, 37°C) without or with GPI-2350 (Panels A, 50 µM; Panels B, increasing conc.) and then incubated (120 min, 37°C) in the absence or presence of insulin (10 nM) or glimepiride (20 µM). IRS-1 and pp59^Lyn were immunoprecipitated from the defatted postnuclear infranatant (see Materials and Methods) and solubilized combined hc/IcDIGs, respectively, and then immunoblotted for phosphotyrosine. […]

rat adipocytes [1] = assay: glucose transport assay; format: cell-based
Experimental: Glucose transport was determined as described in "Müller, G. et al., (1994) J. Cell Biol. 126: 1267-1276" by incubation of 10,000-20,000 washed adipocytes with 2-deoxy-D-[2,6-^3H]glucose at 50 µM final conc. (0.33 µCi/ml) in 50-µl portions for 20 min at 37°C in the absence or presence of 20 µM cytochalasin B.
Table 3: Isolated rat adipocytes were incubated in the presence of methyl-β-cyclodextrin (m-β-CD, 10 mM, 50 min), CBDP (300 µM, electroporation, followed by washing and subsequent incubation for 30 min), PIG41 (10 µM, 15 min), sodium orthovanadate (1 mM, 15 min), trypsin (10 µg/ml, 15 min followed by treatment with 0.5 M NaCl and subsequent washing) and N-ethylmaleimide (1 mM, 5 min followed by addition of DTT). After addition of GPI-2350 (50 µM final conc.) to one half of the adipocyte suspension and further incubation (60 min, 37°C), portions of the cells were assayed for 5'-Nuc activity in the isolated IcDIGs. The increase in 5'-Nuc during the basal incubation was set at 100 arb. units. Other portions of the cells (after 15 min incubation) were assayed for glucose transport which was set at 100 arb. units for the basal incubation. Means ± SD of at least 3 independent cell incubations with activity measurements in triplicate each are given.
Fig. 8: Effect of GPI-2350 on the glimepiride/insulin-induced metabolic activity. Isolated rat adipocytes were treated (5 min, 37°C) without or with GPI-2350 (Panel A, 50 µM; Panel B, increasing conc.; Panel C, 5 µM, 50 µM) and then incubated (15 min, 37°C) in the absence or presence of insulin (Ins, 10 nM) or glimepiride (Gli, 20 µM or increasing conc.) as indicated. The adipocytes were then assayed for glucose transport and isoproterenol-induced lipolysis. The activity is given relative to the absence of GPI-2350 in the control reaction (Panels A, basal) or in the insulin- and glimepiride-stimulated state (Panels B and C, set at 100). Means ± SD of at least 5 independent cell incubations with activity measurements in triplicate each are given.

rat adipocytes [2] = assay: isoproterenol-induced lipolysis measured as release of NBD-FA; format: cell-based; settings: Rattus norvegicus, Adipocyte, given as 'up to', read-out: impairment of insulin inhibition of NBD-FA release
Experimental: Electroporation was performed as described in "Müller, G. et al., (2000) Mol. Cell. Biol. 20: 4708-4723". Lipolysis was determined as release of glycerol or fluorescent NBD-FA from prelabeled and isoproterenol-stimulated adipocytes as described in "Müller, G. et al., (2003) Biochimie 85: 1245-1256". Gce1 was detected by photolabeling of solubilized plasma membranes or hc/IcDIGs (10-50 µg protein) with 8-N3-[^32P]cAMP and subsequent phosphorimaging as described in "Müller, G. et al., (1994) Biochemistry 33: 12149-12159". 5'-Nuc, aP and AChE activities were measured according to "Eliakim, R. et al., (1990) Biochim. Biophys. Acta […]". Protein was determined using the BCA protein determination kit from Pierce (Rockford, IL) and BSA as calibration standard. SDS-PAGE was performed using precast gels (Novex, San Diego, CA; 10 % Bis-Tris resolving gel, morpholinopropanesulfonic acid-SDS running buffer). Lumiimages were evaluated on a Lumilmager using Lumilmager software (Roche Diagnostics). Phosphor- and fluorescence images were processed and quantified using the Storm 860 Phosphorlmager system (Molecular Dynamics, Gelsenkirchen, Germany). Figures were constructed using the Adobe Photoshop software (Adobe Systems, Mountain View, CA). […]

For `CCCCCCCCCCCCP1(=O)O[C@@H]2[C@H](O)[C@@H](O)[C@H](O)[C@@H](O)[C@@H]2O1` (mixture of isomers) [GPI-2350, myo-inositol-1,2-cyclo-dodecylphosphonic acid], the “effect on tyrosine phosphorylation of pp59^Lyn and IRS-1 in response to glimepiride” value (IRS-1 and pp59^Lyn; 50 µM) was “almost complete blockade”, the “effect on metabolic insulin signaling (tyrosine phosphorylation of IRS-1 and inhibition of lipolysis)” value (IRS-1 and pp59^Lyn; insulin-stimulated) was “only marginally reduced” and the “effect on stimulation of glucose transport in response to glimepiride” value (rat adipocytes [1]; 50 µM) was “almost complete blockade; also recorded: lower than control values”. The IC50 (rat adipocytes [1]; Rattus norvegicus, Adipocyte) was 2 to 5 µM, the inhibition at 50 µM (rat adipocytes [1]; Rattus norvegicus, Adipocyte, 50 µM, insulin 10 nM, read-out: reduction of insulin stimulation of glucose transport) was no more than 25% and the inhibition at 50 µM (rat adipocytes [2]) was 25 to 30%.
